# Test results: publication PMC3583578 (Oncology Reports, 2012)
# Experiments:
# [1] = tested on: 26S protease (chymotrypsin, trypsin- and caspase-like activities); settings: three proteolytic activities, dose-dependent; cited from earlier work
# [2] = tested on: TNFα-induced NF-κB activation; test: Luciferase-based in cellulo NF-κB reporter assay; assay type: cell-based, human; settings: K562 cells after transfection
Compound,26S protease inhibition activity (in words) [1],Cytotoxicity at concentrations which inhibited NF-κB activation (in words) [2]
"O=C(/C=C/c1ccccc1)c1ccc(O)cc1 [Chalcone 7, 4′-Hydroxychalcone]",inhibition activity,–
"COc1cccc(/C=C/C(=O)c2ccccc2O)c1OC [Chalcone 16, 2,3-Dimethoxy-2′-hydroxychalcone]",–,cytotoxic
